Measurements from patent US20220096515A1, “Methods and Formulations for Preventing Neurological or Psychiatric Disorders” (Huntington Medical Research Institutes, priority 2020, published 2022).

What was measured:
P2Y13 receptor = molecular target: T1, P2Y13 receptor (Mus musculus, UniProt Q9D8I2); assay: Calcium imaging, P2Y13 agonist; format: cell-based; details: 100 μM; periventricular endothelial cells
T1 construct: imaged continuously before and after αβ-meATP, Bz-ATP and 2Me-SADP application (100 μM); endogenous in cells; host or cells: Primary periventricular endothelial cells from mouse embryonic telencephalon
T1 sequence (Q9D8I2 1-337): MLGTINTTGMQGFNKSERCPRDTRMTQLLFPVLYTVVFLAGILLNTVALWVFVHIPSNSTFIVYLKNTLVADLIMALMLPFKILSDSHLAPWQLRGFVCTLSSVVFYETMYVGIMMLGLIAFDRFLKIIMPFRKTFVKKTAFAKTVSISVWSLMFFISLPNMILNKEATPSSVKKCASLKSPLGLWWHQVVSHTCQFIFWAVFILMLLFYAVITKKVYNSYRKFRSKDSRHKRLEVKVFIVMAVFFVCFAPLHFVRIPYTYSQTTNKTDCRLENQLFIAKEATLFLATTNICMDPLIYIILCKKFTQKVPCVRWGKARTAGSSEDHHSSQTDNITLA
Description: (§1) Calcium imaging: For Ca^2+ assays, periventricular endothelial cells (1 million cells per assay) were incubated with the Ca^2+ indicator dye FluoForte AM according to manufacturer's instructions (Enzo Life Sciences), loaded into the chamber of an FSX 100 microscope and imaged continuously before and after αβ-meATP, Bz-ATP and 2Me-SADP application (100 μM). Fluorescence micrographs were digitalized and results were expressed as change in fluorescence over baseline fluorescence.
(§2) An important aspect that influences endothelial cell proliferation is Ca^2+ influx, which is important for cell cycle progression in the neocortex. GABAA receptor activation in Gabrb3^fl/fl periventricular endothelial cells leads to an influx of Ca^2+ that influences cell proliferation. However, in Gabrb3^ECKO periventricular endothelial cells, due to the deletion of the β3 subunit, the GABAA receptors are dysfunctional. So, the autocrine feedback loop of GABA acting on GABAA receptors will not work in these Gabrb3^ECKO endothelial cells to cause Ca^2+ influx, even if GABA secretion is restored. […] Therefore, P2X4 expression at both mRNA and protein levels in periventricular endothelial cells were evaluated, prepared after the six-day saline and NAD^+ treatment paradigm (FIGS. 11J-11O). […]

P2X4 receptor [1] = molecular target: T2, P2X4 receptor (Mus musculus, UniProt Q9JJX6); assay: P2X4 activation/inactivation in wild type endothelial cells: Daxx mRNA and GABA ELISA; format: cell-based; details: cultured wild type periventricular endothelial cells
T2 construct: endogenous in cells; host or cells: Primary periventricular endothelial cells from mouse embryonic telencephalon (CD1 wild type; Gabrb3 fl/fl; Gabrb3 ECKO with or without NAD+)
T2 sequence (Q9JJX6 1-388): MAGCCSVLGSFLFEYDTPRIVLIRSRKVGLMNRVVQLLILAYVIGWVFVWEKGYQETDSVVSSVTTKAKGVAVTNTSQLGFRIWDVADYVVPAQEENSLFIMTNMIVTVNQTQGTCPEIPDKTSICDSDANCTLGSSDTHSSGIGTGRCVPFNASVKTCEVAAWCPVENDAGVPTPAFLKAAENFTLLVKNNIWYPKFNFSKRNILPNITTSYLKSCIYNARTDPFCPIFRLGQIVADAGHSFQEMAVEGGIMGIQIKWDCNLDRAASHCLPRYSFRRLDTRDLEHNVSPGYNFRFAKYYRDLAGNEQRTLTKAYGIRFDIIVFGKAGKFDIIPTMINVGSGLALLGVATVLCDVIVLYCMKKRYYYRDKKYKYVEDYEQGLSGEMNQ
Description: Quantitative real-time PCR: RT was performed by using iScript Reverse Transcription Supermix kit (Bio-Rad). PCR reactions were run on a CFX96 Touch Real Time PCR (Bio-Rad) with SsoAdvanced™ Universal SYBR® Green Supermix (Bio-Rad). Primers for qPCR (Daxx, P2x4, P2x7, P2y13, Tek, vwf, F2r, Sirt2, Nos1, Nrp1, Pax6, Gad1, Gad2, Grin2a, Trpm2, Trpc4 and Trpv6) were obtained from Thermo Fisher Scientific. The housekeeping gene Gapdh was used as a reference. The relative gene expression and subsequent fold changes among different samples were determined according to published methodology.
ELISA: Periventricular endothelial cells were prepared after the NAD^+ treatment paradigm, or after the treatment with purinergic receptor agonists/antagonists, and seeded in 12 well culture plates at 0.1×10^6 cells/well. Supernatants from endothelial cell cultures were collected after 96 hours and stored at −80° C. for ELISA. GABA concentrations were quantitatively determined by competitive ELISA according to the manufacturers' protocol (GABA Research ELISA kits, Labor Diagnostica Nord, Germany), and absorbance was measured using a multiplate microplate fluorescence reader (Molecular Devices, CA) at 450 nm.
(§3) An important aspect that influences endothelial cell proliferation is Ca^2+ influx, which is important for cell cycle progression in the neocortex. GABAA receptor activation in Gabrb3^fl/fl periventricular endothelial cells leads to an influx of Ca^2+ that influences cell proliferation. However, in Gabrb3^ECKO periventricular endothelial cells, due to the deletion of the β3 subunit, the GABAA receptors are dysfunctional. So, the autocrine feedback loop of GABA acting on GABAA receptors will not work in these Gabrb3^ECKO endothelial cells to cause Ca^2+ influx, even if GABA secretion is restored. In the absence of this mechanism, it was questioned whether the prenatal NAD^+ treatment was able to activate alternate mechanisms to trigger Ca^2+ influx in Gabrb3^ECKO endothelial cells. […] Therefore, P2X4 expression at both mRNA and protein levels in periventricular endothelial cells were evaluated, prepared after the six-day saline and NAD^+ treatment paradigm (FIGS. 11J-11O). P2X4 has been reported as the most abundantly expressed P2X receptor subtype in vascular endothelial cells from several tissues and its deficiency affects normal endothelial cell responses, such as Ca^2+ influx. However, P2X4 expression and functional significance in embryonic forebrain endothelial cells is unknown. […] To test whether P2X4 receptor activation on endothelial cells leads to an influx of Ca^2+, periventricular endothelial cells were incubated from the three groups in the presence of αβ-meATP that has been reported to show agonist activity at P2X receptors, including P2X4 (FIGS. 11N-11Q). […]

P2X7 receptor = molecular target: T3, P2X7 receptor (Mus musculus, UniProt Q9Z1M0); assay: Calcium imaging, P2X7 agonist; format: cell-based; details: 100 μM; periventricular endothelial cells
T3 construct: imaged continuously before and after αβ-meATP, Bz-ATP and 2Me-SADP application (100 μM); endogenous in cells; host or cells: Primary periventricular endothelial cells from mouse embryonic telencephalon
T3 sequence (Q9Z1M0 1-595): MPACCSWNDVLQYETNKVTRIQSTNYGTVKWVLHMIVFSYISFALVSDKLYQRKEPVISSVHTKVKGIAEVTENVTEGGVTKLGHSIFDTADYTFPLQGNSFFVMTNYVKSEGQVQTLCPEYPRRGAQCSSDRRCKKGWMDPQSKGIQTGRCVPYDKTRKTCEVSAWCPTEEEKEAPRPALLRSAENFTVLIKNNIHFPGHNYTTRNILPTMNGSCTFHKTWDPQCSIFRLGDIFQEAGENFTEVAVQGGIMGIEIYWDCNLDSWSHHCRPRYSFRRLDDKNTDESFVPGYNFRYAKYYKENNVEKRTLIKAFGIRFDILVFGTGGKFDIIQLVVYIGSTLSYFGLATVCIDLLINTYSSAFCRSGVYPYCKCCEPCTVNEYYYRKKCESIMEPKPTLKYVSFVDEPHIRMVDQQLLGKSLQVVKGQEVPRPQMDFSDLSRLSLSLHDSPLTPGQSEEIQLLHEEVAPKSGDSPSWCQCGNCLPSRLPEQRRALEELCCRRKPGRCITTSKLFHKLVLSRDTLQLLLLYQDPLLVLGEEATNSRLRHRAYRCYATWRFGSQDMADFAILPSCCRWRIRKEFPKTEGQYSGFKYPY
Description: as §1, §2

P2X4 receptor [2] = molecular target: T2, P2X4 receptor; assay: Calcium imaging, P2X receptor agonist; format: cell-based; details: 100 μM
Description: as §1, §3

[3] = system: periventricular endothelial cells isolated from E15 wildtype (CD1) forebrain; assay: Endothelial cell proliferation in culture (confluency, BrdU labeling index); format: cell-based, mouse; details: 30 μM and 100 μM
Description: Primary culture of endothelial cells and endothelial cell staining: Embryonic brains were dissected under a stereo-microscope, after the NAD^+ treatment paradigm and the telencephalon was removed. Pial membranes were peeled off. Telencephalon without pial membranes from the periventricular region was pooled. Purity of endothelial cell cultures was established with endothelial cell markers and determined to be one hundred percent. Isolation and culture of endothelial cells were performed according to published methodology. Periventricular endothelial cells were prepared from CD1 (wild type), saline-treated Gabrb3^fl/fl, saline-treated Gabrb3^ECKO, and NAD^+-treated Gabrb3^ECKO embryos. Endothelial cells were labeled with anti-biotinylated isolectinB4 (1:100, Sigma), anti-GABA (1:400, Sigma), anti-DAXX (1:100, Santa Cruz Biotechnology) and anti-P2X4 (1:100, Abclonal) followed by secondary detection with AlexaFluor conjugates (Invitrogen). DAPI (Invitrogen) was used to label nuclei. Images were taken on an FSX100 microscope (Olympus). 1 million cells were examined for each immunohistochemistry condition.
Endothelial cell proliferation and long-distance cell migration assay: To test for cell proliferation, CD1 periventricular endothelial cells (1 million cells per experiment) were incubated in the presence of the mitotic marker 5-bromo-2′-deoxyuridine (0.05% BrdU) with or without muscimol, for 1 hour to examine the impact on proliferation of these cells and processed for BrdU immunohistochemistry.
In one experiment, periventricular endothelial cells were isolated from E15 wildtype (CD1) forebrain and tested the effect of NAD^+ addition in vitro. Exogenous addition of 100 μM NAD^+ was able to initiate significant endothelial cell proliferation within 2 days of culture and a 35 mm culture dish was confluent within 4-6 days (FIGS. 2A-2D). This was an interesting observation, since untreated periventricular endothelial cells take approximately 12 days to reach confluency in 35mm dishes, in our well-established culture conditions. […] Vital elements of angiogenesis include effective endothelial cell proliferation, migration, sprouting, alignment, tube formation and branching. […] In some areas of the dish, the NAD^+-treated endothelial cells seemed to align and fold into tubular shapes (FIG. 2H), aspects that we have not seen in wild type or untreated periventricular endothelial cells in normal culture conditions.
Effects of NAD^+ addition to periventricular endothelial cells isolated from E15 wildtype (CD1) forebrain was more robust than GABA. (FIGS. 17A-17F) Phase contrast images of periventricular endothelial cells cultured from E15 CD1 forebrain at different time points in untreated conditions (FIGS. 17A-17B) or after plating with NAD^+ addition (100 μM; FIGS. 17C-17D) or GABA addition (5 μM; FIGS. 17E-17F). […] (FIG. 17G) All groups of periventricular endothelial cells were exposed to BrdU (1 mM BrdU per ml medium) for 1 hour followed by Isolectin B4/BrdU double labeling. Quantification of BrdU labeling indices; Data represents mean±SD (n=8, *P<0.05; Student's t-test).

Compound: CSc1nc(N)c2ncn([C@@H]3O[C@H](COP(=O)(O)OP(=O)(O)O)[C@@H](O)[C@H]3O)c2n1 [2Me-SADP]
- influx of Ca^2+ (P2Y13 receptor): produced an influx of Ca^2+

Compound: O=C1CC(=O)N(c2cccc(-c3nc(=S)o[nH]3)c2)c2ccc3ccccc3c2N1 [+NP-1815-PX, NP-1815-PX]
- Daxx mRNA expression (P2X4 receptor [1]): increased Daxx expression
- GABA secretion by ELISA (P2X4 receptor [1]): reduced GABA secretion

Compound: Bz-ATP
- influx of Ca^2+ (P2X7 receptor): produced an influx of Ca^2+

Compound: Nc1ncnc2c1ncn2[C@@H]1O[C@H](COP(=O)(O)CP(=O)(O)OP(=O)(O)O)[C@@H](O)[C@H]1O [αβ-meATP]
- Daxx mRNA expression (P2X4 receptor [1]): reduced Daxx expression
- GABA secretion by ELISA (P2X4 receptor [1]): increased GABA secretion
- intracellular calcium (P2X4 receptor [2]; NAD^+-treated Gabrb3^ECKO endothelial cells): significant increase in intracellular calcium
- intracellular calcium (P2X4 receptor [2]; saline-treated Gabrb3^ECKO endothelial cells): no marked increase in intracellular calcium
- intracellular calcium (P2X4 receptor [2]; saline-treated Gabrb3^fl/fl endothelial cells): significant increase in intracellular calcium

Compound: NCCCC(=O)O [GABA, reference compound]
- endothelial cell proliferation [3]: no notable effect on cell proliferation
